Results: patent US3945994A, “Novel acid compounds” (Gist-Brocades N.V., priority 1973, dated 1976)
In brackets after ≈: the same amount, converted by molar mass.

Legend:
Assay type in all cases: cell-based
[1] = system: Bacillus subtilis ATCC 6633; settings: ATCC6633, agar serial dilution, 24 hours at 37°C
[2] = system: Staphylococcus aureus A 321; settings: A321, agar serial dilution, 24 hours at 37°C
[3] = system: Staphylococcus aureus A 355'; settings: agar serial dilution, 24 hours at 37°C
[4] = system: Staphylococcus aureus A 2000; settings: A2000, agar serial dilution, 24 hours at 37°C
[5] = system: Staphylococcus aureus A 2001; settings: A2001, agar serial dilution, 24 hours at 37°C
[6] = system: Streptococcus haemolyticus A 266; settings: A266, agar serial dilution, 24 hours at 37°C
[7] = system: Streptococcus faecalis L 80; settings: Enterococcus faecalis, L80; agar serial dilution, 24 hours at 37°C
[8] = system: Diplococcus pneumoniae L 54; settings: Streptococcus pneumoniae, L54; agar serial dilution, 24 hours at 37°C
[9] = system: Pasteurella multocida A 723; settings: A723, agar serial dilution, 24 hours at 37°C
[10] = system: Klebsiella pneumoniae A 809; settings: A809, agar serial dilution, 24 hours at 37°C
[11] = system: Salmonella dublin P 43; settings: Salmonella enterica, P43; agar serial dilution, 24 hours at 37°C
[12] = system: Salmonella typhimurium R 127; settings: Salmonella enterica, agar serial dilution, 24 hours at 37°C
[13] = system: Escherichia coli U 20; settings: U20, agar serial dilution, 24 hours at 37°C
[14] = system: Pseudomonas aeruginosa H 10; settings: H10, agar serial dilution, 24 hours at 37°C
[15] = system: Pseudomonas aeruginosa 2396; settings: agar serial dilution, 24 hours at 37°C
[16] = system: Pseudomonas aeruginosa Wyeth A 1058; settings: WYETHA1058, agar serial dilution, 24 hours at 37°C
[17] = system: Proteus rettgeri A 821; settings: Providencia rettgeri, A821; agar serial dilution, 24 hours at 37°C
[18] = system: Proteus mirabilis H 3; settings: H3, agar serial dilution, 24 hours at 37°C
[19] = system: Proteus mirabilis A 1200; settings: A1200, agar serial dilution, 24 hours at 37°C
[20] = system: Proteus morganii 2241; settings: Morganella morganii, agar serial dilution, 24 hours at 37°C

MIC [1] [µg/mL] | MIC [2] [µg/mL] | MIC [3] [µg/mL] | MIC [4] [µg/mL] | MIC [5] [µg/mL] | MIC [7] [µg/mL] | MIC [8] [µg/mL] | MIC [9] [µg/mL] | MIC [10] [µg/mL] | MIC [11] [µg/mL] | MIC [12] [µg/mL] | MIC [13] [µg/mL] | MIC [14] [µg/mL] | MIC [15] [µg/mL] | MIC [16] [µg/mL] | MIC [17] [µg/mL] | MIC [18] [µg/mL] | MIC [19] [µg/mL] | MIC [20] [µg/mL] | Compound | MIC [6] [µg/mL]
0.5 (≈ 1.06 µM) | 3 (≈ 6.35 µM) | 12.5 (≈ 26.5 µM) | 12.5 (≈ 26.5 µM) | 12.5 (≈ 26.5 µM) | 25 (≈ 52.9 µM) | 0.25 (≈ 0.529 µM) | 0.12 (≈ 0.254 µM) | 100 (≈ 212 µM) | 6 (≈ 12.7 µM) | 50 (≈ 106 µM) | 25 (≈ 52.9 µM) | 50 (≈ 106 µM) | 25 (≈ 52.9 µM) | 25 (≈ 52.9 µM) | < 0.75 | < 0.75 | 3 (≈ 6.35 µM) | 50 (≈ 106 µM) | CC1(C)S[C@@H]2[C@H](NC(=O)[C@H](NC(=O)NS(=O)(=O)O)c3ccccc3)C(=O)N2[C@H]1C(=O)O [XVII, D-6-[α-{3-(sulfo)-ureido}-benzylcarbonamido]-penicillanic acid] | 0.12 (≈ 0.254 µM)
0.5 (≈ 0.882 µM) | 1 (≈ 1.76 µM) | 25 (≈ 44.1 µM) | 12.5 (≈ 22.1 µM) | 3 (≈ 5.29 µM) | 12.5 (≈ 22.1 µM) | 1.5 (≈ 2.65 µM) | 0.12 (≈ 0.212 µM) | 100 (≈ 176 µM) | 25 (≈ 44.1 µM) | 50 (≈ 88.2 µM) | 12.5 (≈ 22.1 µM) | 100 (≈ 176 µM) | 50 (≈ 88.2 µM) | 25 (≈ 44.1 µM) | 3 (≈ 5.29 µM) | 12.5 (≈ 22.1 µM) | 6 (≈ 10.6 µM) | 100 (≈ 176 µM) | Cc1noc(NS(=O)(=O)NC(=O)N[C@@H](C(=O)N[C@@H]2C(=O)N3[C@@H]2SC(C)(C)[C@@H]3C(=O)O)c2ccccc2)c1C [XIII, D-6-[α-{3-(3,4-dimethylisoxazol-5-yl-aminosulfonyl)ureido}-benzylcarbonamido]-penicillanic acid] | 0.12 (≈ 0.212 µM)
0.25 (≈ 0.499 µM) | 1.5 (≈ 3 µM) | 50 (≈ 99.9 µM) | 12.5 (≈ 25 µM) | 6 (≈ 12 µM) | 25 (≈ 49.9 µM) | 6 (≈ 12 µM) | > 100 | > 100 | 6 (≈ 12 µM) | 25 (≈ 49.9 µM) | 12.5 (≈ 25 µM) | 100 (≈ 200 µM) | 25 (≈ 49.9 µM) | 25 (≈ 49.9 µM) | 1.5 (≈ 3 µM) | 12.5 (≈ 25 µM) | 1.5 (≈ 3 µM) | > 100 | CCOS(=O)(=O)NC(=O)N[C@@H](C(=O)N[C@@H]1C(=O)N2[C@@H]1SC(C)(C)[C@@H]2C(=O)O)c1ccccc1 [VI, D-6-[α-{3-(ethoxysulfonyl)-ureido}-benzylcarbonamido]-penicillanic acid] | 0.25 (≈ 0.499 µM)
0.25 (≈ 0.456 µM) | 3 (≈ 5.47 µM) | – | – | – | 6 (≈ 10.9 µM) | 0.25 (≈ 0.456 µM) | 0.5 (≈ 0.911 µM) | > 100 | 50 (≈ 91.1 µM) | > 100 | > 100 | > 100 | 50 (≈ 91.1 µM) | 50 (≈ 91.1 µM) | 3 (≈ 5.47 µM) | < 0.75 | – | > 100 | CC1(C)S[C@@H]2[C@H](NC(=O)[C@H](NC(=O)NS(=O)(=O)Nc3cccnc3)c3ccccc3)C(=O)N2[C@H]1C(=O)O [XI, D-6-[α-{3-(pyrid-3-ylaminosulfonyl)-ureido}-benzylcarbonamido]-penicillanic acid] | 0.12 (≈ 0.219 µM)
1.5 (≈ 2.77 µM) | 6 (≈ 11.1 µM) | 25 (≈ 46.2 µM) | 25 (≈ 46.2 µM) | 12.5 (≈ 23.1 µM) | 25 (≈ 46.2 µM) | – | 0.25 (≈ 0.462 µM) | 100 (≈ 185 µM) | 50 (≈ 92.3 µM) | 100 (≈ 185 µM) | 50 (≈ 92.3 µM) | 100 (≈ 185 µM) | 50 (≈ 92.3 µM) | 100 (≈ 185 µM) | 1.5 (≈ 2.77 µM) | 6 (≈ 11.1 µM) | 3 (≈ 5.54 µM) | 100 (≈ 185 µM) | CC1(C)S[C@@H]2[C@H](NC(=O)[C@H](NC(=O)NS(=O)(=O)N3CCOCC3)c3ccccc3)C(=O)N2[C@H]1C(=O)O [XIV, D-6-[α-{3-(morpholino-sulfonyl)-ureido}-benzylcarbonamido]-penicillanic acid] | 3 (≈ 5.54 µM)
1.5 (≈ 2.71 µM) | 3 (≈ 5.43 µM) | 25 (≈ 45.2 µM) | 25 (≈ 45.2 µM) | 12.5 (≈ 22.6 µM) | 25 (≈ 45.2 µM) | – | 1.5 (≈ 2.71 µM) | 50 (≈ 90.5 µM) | 12.5 (≈ 22.6 µM) | 25 (≈ 45.2 µM) | 25 (≈ 45.2 µM) | 100 (≈ 181 µM) | 25 (≈ 45.2 µM) | 25 (≈ 45.2 µM) | 6 (≈ 10.9 µM) | 6 (≈ 10.9 µM) | 1.5 (≈ 2.71 µM) | 50 (≈ 90.5 µM) | Cc1cc(NS(=O)(=O)NC(=O)N[C@@H](C(=O)N[C@@H]2C(=O)N3[C@@H]2SC(C)(C)[C@@H]3C(=O)O)c2ccccc2)no1 [XII, D-6-[α-{3-(5-methylisoxazol-3-yl-aminosulfonyl)-ureido}-benzylcarbonamido]-penicillanic acid] | 1.5 (≈ 2.71 µM)
0.5 (≈ 1.17 µM) | 0.5 (≈ 1.17 µM) | 12.5 (≈ 29.2 µM) | 6 (≈ 14 µM) | 3 (≈ 7 µM) | 1.5 (≈ 3.5 µM) | – | 0.5 (≈ 1.17 µM) | > 100 | 6 (≈ 14 µM) | 12.5 (≈ 29.2 µM) | 12.5 (≈ 29.2 µM) | > 100 | 50 (≈ 117 µM) | > 100 | 1.5 (≈ 3.5 µM) | 12.5 (≈ 29.2 µM) | 6 (≈ 14 µM) | 25 (≈ 58.3 µM) | CC1(C)S[C@@H]2[C@H](NC(=O)[C@H](NS(N)(=O)=O)c3ccccc3)C(=O)N2[C@H]1C(=O)O [XVIII, D-6-[α-(aminosulfonylamino)-benzylcarbonamido]-penicillanic acid] | 0.06 (≈ 0.14 µM)
1 (≈ 1.8 µM) | 1 (≈ 1.8 µM) | – | – | 6 (≈ 10.8 µM) | 6 (≈ 10.8 µM) | 1 (≈ 1.8 µM) | 6 (≈ 10.8 µM) | 25 (≈ 45 µM) | 25 (≈ 45 µM) | 100 (≈ 180 µM) | 25 (≈ 45 µM) | 100 (≈ 180 µM) | 50 (≈ 90 µM) | 50 (≈ 90 µM) | 25 (≈ 45 µM) | 100 (≈ 180 µM) | 50 (≈ 90 µM) | 100 (≈ 180 µM) | CC(C)N(C(C)C)S(=O)(=O)NC(=O)N[C@@H](C(=O)N[C@@H]1C(=O)N2[C@@H]1SC(C)(C)[C@@H]2C(=O)O)c1ccccc1 [VIII, D-6-[α-{3-(diisopropylaminosulfonyl)-ureido}-benzylcarbonamido]-penicillanic acid] | 0.25 (≈ 0.45 µM)
1.5 (≈ 2.92 µM) | 1.5 (≈ 2.92 µM) | 25 (≈ 48.7 µM) | 25 (≈ 48.7 µM) | – | 25 (≈ 48.7 µM) | – | 0.5 (≈ 0.974 µM) | 100 (≈ 195 µM) | – | 50 (≈ 97.4 µM) | 25 (≈ 48.7 µM) | > 100 | > 100 | > 100 | 0.75 (≈ 1.46 µM) | – | 6 (≈ 11.7 µM) | 100 (≈ 195 µM) | CC(C)NS(=O)(=O)NC(=O)N[C@@H](C(=O)N[C@@H]1C(=O)N2[C@@H]1SC(C)(C)[C@@H]2C(=O)O)c1ccccc1 [IX, D-6-[α-{3-(isopropylaminosulfonyl)-ureido}-benzylcarbonamido]-penicillanic acid] | 0.75 (≈ 1.46 µM)
0.5 (≈ 1.06 µM) | 3 (≈ 6.36 µM) | 25 (≈ 53 µM) | 25 (≈ 53 µM) | 6 (≈ 12.7 µM) | 6 (≈ 12.7 µM) | – | 0.5 (≈ 1.06 µM) | > 100 | 100 (≈ 212 µM) | > 100 | 100 (≈ 212 µM) | > 100 | 50 (≈ 106 µM) | 50 (≈ 106 µM) | 25 (≈ 53 µM) | 50 (≈ 106 µM) | 25 (≈ 53 µM) | > 100 | CC1(C)S[C@@H]2[C@H](NC(=O)[C@H](NC(=O)NS(N)(=O)=O)c3ccccc3)C(=O)N2[C@H]1C(=O)O [XVI, D-6-[α-{3-(aminosulfonyl)-ureido}-benzylcarbonamido]-penicillanic acid] | 0.12 (≈ 0.254 µM)
